Assay results as given in patent US20190262469A1 (priority 2015, published 2019).
Converted amounts (≈) assume the structure as drawn. Where no end group is shown, it is not given here.

How the values were obtained:
[1] = in vivo; cited from earlier work
[2] = tested on: alphaviruses; settings: cited from earlier work
[3] = tested on: E. coli ER2420 with pACYC177 or pACYC184; type: cell-based
[4] = tested on: E. coli ER2420/pACYC177; assay: microbe, parasite or virus in culture; type: cell-based; settings: Escherichia coli, test array/20-well test strips (FIG. 34, 35)
[5] = buffer; cited from earlier work
[6] = target: T1, human ephrin B2 (EB2) expressed on cells (CHO-K1 transfected to express ephrin B2) (human, UniProt P52799 28-333); assay: fluorescence of labelled DOPC protocells modified with the ligand on ephrin B2-expressing cells, against unmodified DOPC protocells (FIGS. 3A-B)
T1 construct: whole, on cells; Cellular receptor for Nipah and Hendra viruses; also called CHO-K1/EB2; CHO-K1/ephrin B2
T1 sequence (P52799 28-333): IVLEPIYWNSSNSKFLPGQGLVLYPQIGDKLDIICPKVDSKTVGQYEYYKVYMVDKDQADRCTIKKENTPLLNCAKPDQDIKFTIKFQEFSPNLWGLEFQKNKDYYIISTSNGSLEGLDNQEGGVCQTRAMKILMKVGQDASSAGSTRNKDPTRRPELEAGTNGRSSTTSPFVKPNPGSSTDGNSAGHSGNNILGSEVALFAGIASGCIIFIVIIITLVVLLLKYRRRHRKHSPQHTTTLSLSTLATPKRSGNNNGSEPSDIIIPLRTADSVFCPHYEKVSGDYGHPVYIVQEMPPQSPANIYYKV

NC(=O)c1ncn([C@@H]2O[C@H](CO)[C@@H](O)[C@H]2O)n1 [Ribavirin]
circulation half-life [1]: < 48 h
IC50 values for several alphaviruses [2]: low micromolar range

CC1(C)S[C@@H]2[C@H](NC(=O)[C@H](N)c3ccc(O)cc3)C(=O)N2[C@H]1C(=O)O [amoxicillin]
killing action detected by delta-Ct for PMA treatment [3]: in the susceptible strain (pACYC184) and not in the resistant strain (pACYC177)
MIC [4]: > 128 µg/mL
half-life in aqueous media/solution [5]: on the order of a few hours

CO/N=C(\C(=O)N[C@@H]1C(=O)N2C(C(=O)O)=C(COC(C)=O)CS[C@H]12)c1csc(N)n1 [cefotaxime]
killing action detected by delta-Ct for PMA treatment [3]: in both strains

O=C(O)c1cn(C2CC2)c2cc(N3CCNCC3)c(F)cc2c1=O [ciprofloxacin]
killing action detected by delta-Ct for PMA treatment [3]: rapidly bactericidal to both E. coli at low concentrations
MIC [4]: < 0.031 µg/mL

O=C(O)[C@H]1/C(=C/CO)O[C@@H]2CC(=O)N21 [clavulanic acid]
half-life in aqueous media/solution [5]: a few hours

NC[C@H]1O[C@H](O[C@H]2[C@H](O)[C@@H](O[C@H]3O[C@H](CO)[C@@H](O)[C@H](N)[C@H]3O)[C@H](N)C[C@@H]2N)[C@H](O)[C@@H](O)[C@@H]1O [kanamycin]
MIC [4]: > 256 µg/mL

CO[C@H]1/C=C/O[C@@]2(C)Oc3c(C)c(O)c4c(O)c(c(/C=N/N5CCN(C)CC5)c(O)c4c3C2=O)NC(=O)/C(C)=C\C=C\[C@H](C)[C@H](O)[C@@H](C)[C@@H](O)[C@@H](C)[C@H](OC(C)=O)[C@@H]1C [rifampicin]
MIC [4]: 8 µg/mL (≈ 9.72 µM)

B1: EB2-binding peptide identified via phage display, conjugated to the supported lipid bilayer of DOPC protocells (peptide)
peptide: TGAILHP
modifications: also: conjugated to protocell lipid bilayer, linker not described
notes: also called ephrin B2-targeting peptide; targeting peptide
fold increase in selective binding and internalization [6]: 100 fold
